What was measured:
isolated chicks = test: chick call test: distress call activation in isolated one day old chicks (antidepressant activity); format: in vivo; details: Placebo = 100%
From the text: The call frequency of isolated one day old chicks, which decreases in the course of the test, is used as an experimental behavioral model of manifestations of resignation in depression, The method has been validated by tests on numerous neurotropically active substances; it is distinguished by its highly reproducible selectivity for antidepressants which are capable of reactivating the decreased call rate as a function of dosage. [distress call activation in isolated chicks; A new behavioral model for antidepressants, E. Lehr, Psychopharmacol. 89. […] Neurol. Psychiat.

[1] = system: ptosis induced by tetrabenazine; test: Inhibition of ptosis induced by tetrabenazine in the mouse; format: in vivo; details: Control without tetrabenazine = 100%
mice = details: mouse, in vivo
Procedure: The test substances were dissolved in 0.9% NaCl solution.
**The animals in Group 2 were treated first with
1benzyl-4-aminomethyl-pyrrolidin-2-one FU and immediately afterwards
(about 10 to 15 seconds later) with imipramin.

[2] = system: Albino mice of the Chbb: NMRI strain; details: group 1 (m and f), i.v., mouse, dosage 100
From the text: Albino mice of the Chbb: NMRI strain
A 2% solution of 1-benzyl-4-aminomethyl-pyrrolidin-2-one fumarate and a 0.25% imipramin solution (pH=6.2) were used.

| SMILES | Increase in call rate in the second hour (isolated chicks; 10 mg/kg i.p.) [%] | Inhibition of ptosis induced by tetrabenazine ([1]; 3 mg/kg p.o.) [%] | effect of pretreatment on the toxic effect of imipramin (mice) | Lethality dead/treated animals [2] | Increase in call rate in the second hour (isolated chicks; 5 mg/kg i.p.) [%] | Inhibition of ptosis induced by tetrabenazine ([1]; 3.5 mg/kg p.o.) [%] |
| --- | --- | --- | --- | --- | --- | --- |
| CN(C)CCCN1c2ccccc2CCc2ccccc21 [Compound A, 10,11-dihydro-N,N-dimethyl-5H-dibenz[b,f]-azepin-5-propanamine, reference compound] | 131 | 12 | – | – | – | – |
| NCC1CC(=O)N(Cc2ccccc2)C1 (stereo not drawn) [Compound B, 1-benzyl-4-aminomethyl-pyrrolidin-2-one] | – | – | toxic effect of imipramin is reduced | 0/10 | 284 | 48 |

Source: US4931435A, “Agent with an antidepressant activity” (Boehringer Ingelheim KG, priority 1987, dated 1990)
